Measurements from patent publication US12403088B2, “Ophthalmic compositions and methods for reducing oxidative damage to an eye lens” (University of Louisville Research Foundation, Inc., priority 2015, dated 2025).

System: excised porcine lenses
Test: Protein oxidation (OxyBlot) in excised porcine lenses cultured under hyperoxic conditions mimicking post-vitrectomy oxygen levels
Format: cell-based
Procedure: To assess the ability of the antioxidant compositions including non-reducing sugars to reduce oxidative damage to an eye lens of a subject, trehalose, a non-reducing disaccharide, was applied to lenses being cultured under hyperoxic (high oxygen) conditions that mimic post-vitrectomy intravitreal oxygen levels. Briefly, six excised porcine lenses were cultured in M199 media with 4% porcine serum at 37° C. for 1 week to acclimate to culture conditions. Then, 3 lenses were exposed to media with 7.5% trehalose while three control lenses remained untreated. At regular intervals, incubated lenses were examined under a dissecting microscope against a background of black gridlines. The oxygen concentration was controlled to mimic post-vitrectomy conditions. After 10 days, each lens was analyzed for protein oxidation using the OxBlot Oxidized Protein Detection Kit (Chemicon, International, Billerica, MA) to quantify the ability of the gel application method to protect the lens.
The method described above was used to compare the effect of a subject trehalose composition freely dispersed in the tissue culture media (FIG. 1, first bar) to a biogel composition that was described by Tezel et al. in WO2014081969A1 (“Compositions and methods for reducing oxidative damage”) and which includes trehalose within a polymer gel. […]

OC[C@H]1O[C@H](O[C@H]2O[C@H](CO)[C@@H](O)[C@H](O)[C@H]2O)[C@H](O)[C@@H](O)[C@@H]1O [trehalose, α,α-1,1-Trehalose]
amount of protein oxidation in the lens (in words) (administration of trehalose to the eye lens, ex vivo, FIG. 1): reduced an amount of protein oxidation in the lens
reduction in protein oxidation levels to (trehalose composition freely dispersed in tissue culture media (7.5% trehalose), hyperoxic culture, 10 days, FIG. 1 bar 1): about 20%
